According to PMC7938330 (Toxicology in vitro : an international journal published in …, 2020):

Target: Complex V (ATP synthase complex) (Bos taurus, UniProt P00829+P05631+P19483)
Assay: immunocapture-based OXPHOS activity assay
Assay type: biochemical

## C1CCC(C(CC2CCCCN2)C2CCCCC2)CC1 (stereo not shown) [perhexiline]
  IC50: 10 nM
